From US11884675B2, “Heterocyclic compounds as triggering receptor expressed on myeloid cells 2 agonists and methods of use” (AMGEN INC., priority 2020, dated 2024)

target: hTREM2 (Homo sapiens, UniProt Q9NZC2); test: TREM2 activity by cellular Syk phosphorylation (AlphaScreen/AlphaLISA) in TREM2/DAP12-HEK cells, used for Examples 1-305; format: cell-based; set-up: expressed in transfected cells; conditions: HEK293 Cells
Procedure, shortened: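 Phospho-Syk (Tyr525/526) over total Syk quantified by AlphaScreen in lysates of cloned TREM2/DAP12-overexpressing HEK293 cells after 45 min compound treatment at room temperature, 1% final DMSO. Values expressed relative to 100 nM anti-TREM2 antibody (positive) and isotype IgG (negative) controls; curves fitted with 4-parameter logistic model.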

Sequence of hTREM2 (Q9NZC2 19-230): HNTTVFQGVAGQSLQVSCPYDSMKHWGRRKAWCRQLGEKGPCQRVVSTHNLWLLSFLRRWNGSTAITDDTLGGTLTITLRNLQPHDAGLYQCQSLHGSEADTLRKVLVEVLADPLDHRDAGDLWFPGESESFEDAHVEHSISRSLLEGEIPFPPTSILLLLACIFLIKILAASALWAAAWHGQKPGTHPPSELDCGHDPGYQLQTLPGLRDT
Sequence of hTREM2 (O43914 22-113 partner): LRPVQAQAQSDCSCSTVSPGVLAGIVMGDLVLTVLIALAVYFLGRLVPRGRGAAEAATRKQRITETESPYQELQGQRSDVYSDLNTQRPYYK

Row | Compound | EC50 | hTREM2 Emax
1 | Cc1ccc2c(-c3ccc(F)cc3F)nc([C@H]3CCO[C@@H](c4cnn(C)c4)C3)nc2n1 [Example 289, 4-(2,4-difluorophenyl)-7-methyl-2-((2R,4S)-2-(1-methyl-1H-pyrazol-4-yl)tetrahydro-2H-pyran-4-yl)pyrido[2,3-d] pyrimidine] | 3000 to 100000 nM | ++ (Emax>100 and ≤150)
2 | Cn1cc([C@H]2CN(c3cc(-c4ccc(Cl)cc4F)c4cccnc4n3)CCO2)cn1 [Example 155, 4-(4-chloro-2-fluorophenyl)-2-((2S)-2-(1-methyl-1H-pyrazol-4-yl)-4-morpholinyl)-1,8-naphthyridine] | 500 to 3000 nM | ++ (Emax>100 and ≤150)
3 | Cc1cc([C@@H]2C[C@H](c3nc4nc(C)c(C)nc4c([C@H]4C[C@H](C(F)(F)F)C4)n3)CCO2)ccn1 (single isomer, unassigned) [Example 214] | 50 to 500 nM | ++++ (Emax>250)
4 | Cc1nc2nc([C@@H]3CCO[C@H](c4cnn(C)c4)C3)cc(-c3ccc(Cl)cc3F)c2nc1C [Example 250, 8-(4-chloro-2-fluorophenyl)-2,3-dimethyl-6-((2S,4R)-2-(1-methyl-1H-pyrazol-4-yl)tetrahydro-2H-pyran-4-yl)pyrido[2,3-b]pyrazine] | 500 to 3000 nM | +++ (Emax>150 and ≤250)
5 | Cc1cnc2c(-c3ccc(Cl)cc3F)nc([C@@H]3CCO[C@H](c4cnc(C)nc4)C3)nc2n1 (single isomer, unassigned) [Example 174] | 50 to 500 nM | +++ (Emax>150 and ≤250)
6 | Cc1nc2cc(N3CCO[C@@H](c4cnn(C)c4)C3)nc([C@H]3C[C@H](C(F)(F)F)C3)c2nc1C [Example 80, 2,3-dimethyl-7-((2S)-2-(1-methyl-1H-pyrazol-4-yl)-4-morpholinyl)-5-(trans-3-(trifluoromethyl)cyclobutyl)pyrido[3,4-b]pyrazine] | 50 to 500 nM | ++ (Emax>100 and ≤150)
7 | Cc1cc2c(-c3ccc(Cl)cc3F)nc([C@@H]3CCO[C@H](c4cnn(C5CC5)c4)C3)nc2nc1C (single isomer, unassigned) [Example 198] | 50 to 500 nM | +++ (Emax>150 and ≤250)
8 | Cc1ncc([C@@H]2C[C@H](c3nc(-c4ccc(Cl)cc4F)c4nc(C)c(C)nc4n3)CCO2)cn1 [Example 282, 4-(4-chloro-2-fluorophenyl)-6,7-dimethyl-2-((2S,4R)-2-(2-methylpyrimidin-5-yl)tetrahydro-2H-pyran-4-yl)pteridine] | 500 to 3000 nM | ++ (Emax>100 and ≤150)
9 | Cc1ccc2c(-c3ccc(Cl)cc3F)nc(N3CCO[C@@H](c4cnn(C5CC5)c4)C3)cc2n1 [Example 150, 5-(4-chloro-2-fluorophenyl)-7-((2S)-2-(1-cyclopropyl-1H-pyrazol-4-yl)-4-morpholinyl)-2-methyl-1,6-naphthyridine] | 50 to 500 nM | ++++ (Emax>250)
10 | Cc1nc2nc(N3CCO[C@@H](c4cnn(C)c4)C3)nc(CCC(F)(F)F)c2nc1C [Example 40, 6,7-dimethyl-2-((2S)-2-(1-methyl-1H-pyrazol-4-yl)-4-morpholinyl)-4-(3,3,3-trifluoropropyl)pteridine] | 50 to 500 nM | + (Emax>45 and ≤100)
11 | Cc1nc2nc([C@@H]3CCO[C@@H](c4cnn(C)c4)C3)nc(-c3ccc(Cl)cc3F)c2nc1C [Example 179, 4-(4-chloro-2-fluorophenyl)-6,7-dimethyl-2-((2R,4R)-2-(1-methyl-1H-pyrazol-4-yl)tetrahydro-2H-pyran-4-yl)pteridine] | 500 to 3000 nM | ++++ (Emax>250)
12 | Cc1ccc(-c2nc([C@H]3CCO[C@H](c4ccnc(C)c4)C3)nc3nc(C)c(C)nc23)c(F)c1 [Example 286, 4-(2-fluoro-4-methylphenyl)-6,7-dimethyl-2-((2S,4S)-2-(2-methylpyridin-4-yl)tetrahydro-2H-pyran-4-yl)pteridine] | ≤ 50 nM | +++ (Emax>150 and ≤250)
